Data set [1] relates to HepG2 (human liver cancer cells). The experiment in a line: Antiproliferative activity (SRB assay). The settings on record: mean ± SD, three separated experiments, 72 h. In kind it is cell-based. The procedure:
(§1) MCF-7, MGC-803, Hela and HepG-2 cell lines were cultured in a base medium (90% DMEM and 10% FBS), A549 and U937 were cultured in a base medium (90% PRMI-1640 and 10% FBS) at 37 °C, 5% CO2 and a saturated humidity atmosphere. All the mediums were supplemented with 10% FBS and 1% […]/streptomycin (all cells were purchased from Shanghai Institutes for Biological Sciences, Chinese Academy of Sciences, Shanghai, China).
(§2) A549, MGC-803, MCF-7, HepG2 and Hela cells were seeded at the appropriate cell line density (3 × 10^3 to 4 × 10^3 cells/well). The cells were then incubated at 37 °C for 24 h in a humidified 5%CO2 in 96-well plates prior to experiments. After a further 72 h of incubation, cell proliferation was quantified with SRB ([…]) to determine the number of surviving cells. The absorbance at 560 nm was measured by microplate. The experiment was repeated three times, and the data were listed in the form of mean and standard deviation.
On the technique in general: Sulforhodamine B stains cellular protein and so reports cell mass.

Data set [2] concerns A549 (human non-small cell lung cancer). The experiment in a line: Antiproliferative activity (SRB assay). Format: cell-based. The settings on record: mean ± SD, three separated experiments, 72 h. The procedure: as §1, §2
Data set [3] concerns Hela (human cervical cancer cells). The experiment in a line: Antiproliferative activity (SRB assay). The settings on record: mean ± SD, three separated experiments, 72 h. Format: cell-based. The procedure: as §1, §2
Data set [4] concerns U937 (human leukaemia cells). The experiment in a line: Antiproliferative activity (CCK-8 assay). The settings on record: U-937, mean ± SD, three separated experiments, 72 h. In kind it is cell-based. The procedure: as §1
(§3) MGC-803 cells were collected and seeded into 96 well plates at a density of 8000/well. The mediums containing drugs and cell suspension were added into the well. The cells were incubated in 5% CO2 incubator at 37 °C for 72 h. Each well was added 10 µL CCK8 solution, and the incubation time was 3–4 h. The absorbance value at 450 nm was measured by microplate reader. Data are calculated with GraphPad Prism5 software.
In general terms: Tetrazolium dyes change colour on reduction, which living cells bring about.

Data set [5] relates to MGC-803 (human gastric cancer cells). The data set can be described thus: Antiproliferative activity (SRB / CCK-8 assay). The settings on record: mean ± SD. In kind it is cell-based. The procedure:
as §1, §2, §3

Data set [6] has as its system THP-1-derived macrophages. The experiment in a line: Growth inhibition of normal human cells. In kind it is cell-based. The settings on record: Macrophage, triplicate, mean ± SD. The procedure: (§4) The effect of compound 4c on three types of normal human cell lines including LO2 (human hepatocyte cells), 293 T (human embryonic kidney cell) and THP-1-derived macrophages was then determined.

In data set [7] the test system is 293 T (human embryonic kidney cell). The experiment in a line: Growth inhibition of normal human cells. In kind it is cell-based. The settings on record: HEK-293T, triplicate, mean ± SD. How it is done:
as §4

The test system of data set [8] is LO2 (human hepatocyte cells). The experiment in a line: Growth inhibition of normal human cells. Format: cell-based. The settings on record: triplicate, mean ± SD. The procedure: as §4
Data set [9] deals with MCF-7 (human breast cancer cells). The data set can be described thus: Antiproliferative activity (SRB assay). In kind it is cell-based. The settings on record: MCF7, mean ± SD, three separated experiments, 72 h. How it is done:
as §1, §2

The subject of data set [10] is six human cancer cell lines (MCF-7, MGC-803, HepG2, Hela, A549, U937). The data set can be described thus: Antiproliferative activity, summary over the tested cancer cell lines. In kind it is cell-based. The procedure:
as §2, §3

The mark [11] stands for this setting: three separated experiments, 72 h.

Where two headings read alike, the source gives them in different places.

As a reminder, the IC50 is the concentration that inhibits the measured activity by half. With `COc1ccc(/C=C\c2cc(OC)c(OC)c(OC)c2)cc1O` [CA-4, Combretastatin A4, reference compound], the IC50 in data set [1] came to 7 ± 1 nM; in data set [2], 5 ± 1 nM; in [3], 8 ± 1 nM; in [4], 0.3 nM; in data set [5] (Table 2, triplicate) it was 2 ± 1 nM; in data set [5] (setting [11]), 2 ± 1 nM. Also, the results for the IC50 in data set [6], in data set [7] and in data set [8] were 7 ± 1 nM, 12 ± 2 nM and 5 ± 1 nM, respectively.

As a reminder, the melting point is the temperature, or range, at which the solid turns liquid. Take `COc1cc(C(=O)/C(F)=C/c2ccc3c(c2)CCO3)cc(OC)c1OC` [4n, (Z)-3–(2,3-dihydrobenzofuran-5-yl)-2-fluoro-1–(3,4,5-trimethoxyphenyl)prop-2-en-1-one]: the melting point is 100.8 to 103.7 °C. The IC50 in [9] came out at 128 ± 4 nM. For the same compound, the IC50 in data set [1] came to 116 ± 1 nM. This compound also came in with an IC50 in data set [2] of 364 ± 3 nM. Besides, in data set [3], the midpoint of inhibition, the IC50, lay at 42 ± 1 nM. In [10] (several tested cancer cell lines, range, read-out: IC50, inhibitory effect), the IC50 lay in the range of 31 to 364 nM. In data set [4], this compound returned an IC50 of 31 ± 1 nM. Also, in [5] (setting [11]), half-maximal inhibition (IC50) was put at 43 ± 1 nM.

In turn, `COC(=O)c1ccc2[nH]cc(/C=C(\F)C(=O)c3cc(OC)c(OC)c(OC)c3)c2c1` [4d, Methyl(Z)-3–(2-fluoro-3-oxo-3–(3,4,5-trimethoxyphenyl)prop-1-en-1-yl)-1H-indole-5-carboxylate] had a melting point of 80.4 to 81.8 °C. Also, the IC50 in data set [9] was greater than 5000 nM. Moreover, the IC50 in data set [1] is greater than 5000 nM. The IC50 in [2] was greater than 5000 nM. The compound further came in with an IC50 in data set [3] greater than 5000 nM. Besides, the 50% inhibitory concentration (IC50) in data set [10] (tested cancer cell lines, read-out: IC50, anti-proliferative activity) was greater than 5000 nM. Moreover, the IC50 in [4] was greater than 5000 nM. In [5] (setting [11]), this compound displayed an IC50 greater than 5000 nM.

(Values after publication PMC8741257, “Identification of novel non-toxic and anti-angiogenic α-fluorinated chalcones as potent colchicine binding site inhibitors” (Journal of Enzyme Inhibition and Medicinal Chemistry, 2022).)
